# Assay results published in patent US20260159539.
# Like-named read-outs stand apart in the source and are kept apart here.
compound,measurement,setting,value
CCOC(=O)[C@@H]1Cc2nc(Br)nn2/C=C/[C@@H]2[C@H](CCN2C(=O)OC(C)(C)C)C(=O)N(C)[C@@H](C(C)C)C(=O)N1,"ring closure, isolated yield","from C=C[C@@H]1[C@@H](C(=O)N(C)[C@H](C(=O)N[C@@H](Cc2nc(Br)nn2C=C)C(=O)OCC)C(C)C)CCN1C(=O)OC(C)(C)C, rcm bond, 13-membered ring, Grubbs G2/Ti(OiPr)4, DCM, 15.3 mM, 45.0 °C, 12.0 h",27%
"tert-butyl (3aS,6S,9S,15S,32aS)-6-isopropyl-21-(2-((S)-1-methoxyethyl)-5-(4-(oxetan-3-yl)piperazin-1-yl)pyridin-3-yl)-5,19,19-trimethyl-4,7,10,16-tetraoxo-22-(2,2,2-trifluoroethyl)-2,3,3a,4,5,6,7,8,9,10,13,14,15,16,18,19,20,22,32,32a-icosahydro-1H,12H-11,15-epimino-23,25-etheno-9,28-methano-26,30-(metheno)dipyrrolo[2,3-c:3′,4′-v][1,18]dioxa[6,9,12]triazacyclotriacontine-1-carboxylate","ring closure, isolated yield","ether bond, 14-membered ring",76%
CCc1c(-c2cc(N3CCN(C(=O)OCc4ccccc4)CC3)cnc2[C@H](C)OC)n2c3cc(ccc13)-c1cc(cc(O[Si](C(C)C)(C(C)C)C(C)C)c1)C[C@H](NC(=O)OC(C)(C)C)C(=O)N1CCC[C@H](N1)C(=O)OCC(C)(C)C2,"ring closure, isolated yield","from CCc1c(-c2cc(N3CCN(C(=O)OCc4ccccc4)CC3)cnc2[C@H](C)OC)n(CC(C)(C)CO)c2cc(-c3cc(C[C@H](NC(=O)OC(C)(C)C)C(=O)N4CCC[C@@H](C(=O)O)N4)cc(O[Si](C(C)C)(C(C)C)C(C)C)c3)ccc12, ester bond, 18-membered ring, EDCI/HOBt/DIEA, DCM, 8.8 mM, 25.0 °C, 16.0 h, 2 steps",48%
COC(=O)[C@@H]1Cc2cc(I)cc(c2)OC[C@@H]2[C@H](CCN2C(=O)OC(C)(C)C)C(=O)N(C)[C@@H](C(C)C)C(=O)N1,"ring closure, isolated yield","from COC(=O)[C@H](Cc1cc(O)cc(I)c1)NC(=O)[C@H](C(C)C)N(C)C(=O)[C@H]1CCN(C(=O)OC(C)(C)C)[C@@H]1COS(=O)(=O)c1ccc(C)cc1, ether bond, 14-membered ring, K2CO3/KI, DMF, 12.2 mM, 80.0 °C, 2.0 h",66%
CCn1c(-c2cc(OCc3ccccc3)cnc2[C@H](C)OC)c2c3cc(ccc31)-c1cc(cc(O[Si](C(C)C)(C(C)C)C(C)C)c1)C[C@H](NC(=O)OC(C)(C)C)C(=O)N1CCC[C@H](N1)C(=O)OCC(C)(C)C2,"ring closure, isolated yield","from CCn1c(-c2cc(OCc3ccccc3)cnc2[C@H](C)OC)c(CC(C)(C)CO)c2cc(-c3cc(C[C@H](NC(=O)OC(C)(C)C)C(=O)N4CCC[C@@H](C(=O)O)N4)cc(O[Si](C(C)C)(C(C)C)C(C)C)c3)ccc21, ester bond, 18-membered ring, EDCI/HOBt/DIPEA, DCM, 9.8 mM, 25.0 °C, 16.0 h, 4 steps",67%
CCn1c(-c2cc(Oc3cccnc3)cnc2[C@H](C)OC)c2c3cc(ccc31)-c1cc(cc(O[Si](C(C)C)(C(C)C)C(C)C)c1)C[C@H](NC(=O)OC(C)(C)C)C(=O)N1CCC[C@H](N1)C(=O)OCC(C)(C)C2,"ring closure, isolated yield","from CCn1c(-c2cc(Oc3cccnc3)cnc2[C@H](C)OC)c(CC(C)(C)CO)c2cc(-c3cc(C[C@H](NC(=O)OC(C)(C)C)C(=O)N4CCC[C@@H](C(=O)O)N4)cc(O[Si](C(C)C)(C(C)C)C(C)C)c3)ccc21, ester bond, 18-membered ring, EDCI/HOBt/DIPEA, DCM, 9.9 mM, 25.0 °C, 12.0 h, 4 steps",67%
CCn1c(-c2cc(N3CCN(C(=O)OCc4ccccc4)CC3)cnc2[C@H](C)OC)c2c3cc(ccc31)-c1cc(cc(O[Si](C(C)C)(C(C)C)C(C)C)c1)C[C@H](NC(=O)OC(C)(C)C)C(=O)N1CCC[C@H](N1)C(=O)OCC(F)(F)C2,"ring closure, isolated yield","from CCn1c(-c2cc(N3CCN(C(=O)OCc4ccccc4)CC3)cnc2[C@H](C)OC)c(CC(F)(F)CO)c2cc(-c3cc(C[C@H](NC(=O)OC(C)(C)C)C(=O)N4CCC[C@@H](C(=O)O)N4)cc(O[Si](C(C)C)(C(C)C)C(C)C)c3)ccc21, ester bond, 18-membered ring, EDCI/HOBt/DIEA, DCM, 32.0 mM, 25.0 °C, 16.0 h, 2 steps",75%
CCn1c(-c2cc(N3CCN(C4CC4)CC3)cnc2[C@H](C)OC)c(CC(C)(C)CO)c2cc(-c3cc4cc(c3)C[C@@H](C(=O)OC)NC(=O)[C@H](C(C)C)N(C)C(=O)[C@H]3CCCN(C(C)=O)N3CC4)ccc21,"ring closure, isolated yield","from CCn1c(-c2cc(N3CCN(C4CC4)CC3)cnc2[C@H](C)OC)c(CC(C)(C)CO)c2cc(-c3cc(CCN4[C@@H](C(=O)O)CCCN4C(C)=O)cc(C[C@H](NC(=O)[C@@H](NC)C(C)C)C(=O)OC)c3)ccc21, amide bond, 14-membered ring, COMU/DIPEA, DMF, 54.0 mM, 25.0 °C, 1.0 h, 2 steps",42%
CCn1c(-c2cc(N3CCN(C(=O)OCc4ccccc4)CC3)cnc2[C@H](C)OC)c2c3cc(ccc31)-c1cc(cc(O[Si](C(C)C)(C(C)C)C(C)C)c1)C[C@H](NC(=O)OC(C)(C)C)C(=O)N1CCC[C@H](N1)C(=O)OCC(C)(C)C2,"ring closure, isolated yield","from CCn1c(-c2cc(N3CCN(C(=O)OCc4ccccc4)CC3)cnc2[C@H](C)OC)c(CC(C)(C)CO)c2cc(-c3cc(C[C@H](NC(=O)OC(C)(C)C)C(=O)N4CCC[C@@H](C(=O)O)N4)cc(O[Si](C(C)C)(C(C)C)C(C)C)c3)ccc21, ester bond, 18-membered ring, EDCI/HOBt/DIEA, DCM, 9.3 mM, 25.0 °C, 16.0 h",63%
CCn1c(-c2cc(N3CCN(C(=O)OCc4ccccc4)CC3)cnc2[C@H](C)OC)c2c3nc(ccc31)-c1cc(cc(O[Si](C(C)C)(C(C)C)C(C)C)c1)C[C@H](NC(=O)OC(C)(C)C)C(=O)N1CCC[C@H](N1)C(=O)OCC(C)(C)C2,"ring closure, isolated yield","from CCn1c(-c2cc(N3CCN(C(=O)OCc4ccccc4)CC3)cnc2[C@H](C)OC)c(CC(C)(C)CO)c2nc(-c3cc(C[C@H](NC(=O)OC(C)(C)C)C(=O)N4CCC[C@@H](C(=O)O)N4)cc(O[Si](C(C)C)(C(C)C)C(C)C)c3)ccc21, ester bond, 18-membered ring, EDCI/HOBt/DIEA, DCM, 32.0 mM, 25.0 °C, 16.0 h, 2 steps",42%
COC(=O)[C@@H]1Cc2cc(Br)cc(c2)CC[C@@H]2[C@H](CCN2C(=O)OC(C)(C)C)C(=O)N(C)[C@@H](C(C)C)C(=O)N1,"ring closure, isolated yield","from COC(=O)[C@@H](N)Cc1cc(Br)cc(CC[C@@H]2[C@@H](C(=O)N(C)[C@H](C(=O)O)C(C)C)CCN2C(=O)OC(C)(C)C)c1, amide bond, 14-membered ring, HATU/DIEA, DMF, 16.0 mM, 25.0 °C, 1.0 h, 2 steps",34%
CO[C@@H](C)c1ncc(C2CCN(C(=O)OCc3ccccc3)CC2)cc1-c1c2c3cc(ccc3n1CC(F)(F)F)-c1cc(cc(O[Si](C(C)C)(C(C)C)C(C)C)c1)C[C@H](NC(=O)OC(C)(C)C)C(=O)N1CCC[C@H](N1)C(=O)OCC(C)(C)C2,"ring closure, isolated yield","from CO[C@@H](C)c1ncc(C2CCN(C(=O)OCc3ccccc3)CC2)cc1-c1c(CC(C)(C)CO)c2cc(-c3cc(C[C@H](NC(=O)OC(C)(C)C)C(=O)N4CCC[C@@H](C(=O)O)N4)cc(O[Si](C(C)C)(C(C)C)C(C)C)c3)ccc2n1CC(F)(F)F, ester bond, 18-membered ring, EDCI/HOBt/DIEA, DCM, 8.4 mM, 25.0 °C, 16.0 h, 3 steps",42%
COC(=O)[C@@H]1Cc2cc(Cl)cc(c2)CCN2[C@H](CC[C@H]2C(=O)N(C)C)C(=O)N(C)[C@@H](C(C)C)C(=O)N1,"ring closure, isolated yield","from COC(=O)[C@@H](N)Cc1cc(Br)cc(CCN2[C@@H](C(=O)N(C)[C@H](C(=O)O)C(C)C)CC[C@H]2C(=O)N(C)C)c1, amide bond, 14-membered ring, HATU/DIEA, DMF, 17.1 mM, 25.0 °C, 1.0 h, 2 steps",44%
CCOC(=O)[C@@H]1Cc2nc(Br)sc2C=C[C@@H]2[C@H](CCN2C(=O)OC(C)(C)C)C(=O)N(C)[C@@H](C(C)C)C(=O)N1,"ring closure, isolated yield","from C=Cc1sc(Br)nc1C[C@H](NC(=O)[C@H](C(C)C)N(C)C(=O)[C@H]1CCN(C(=O)OC(C)(C)C)[C@@H]1C=C)C(=O)OCC, rcm bond, 13-membered ring, Grubbs G2/Ti(OiPr)4, DCM, 28.3 mM, 45.0 °C, 16.0 h",20%
